Molecules are shown by their SMILES.

Experiment [1] has as its target Mu-type opioid receptor (Homo sapiens, UniProt P35372). The experiment in a line: Binding affinity for Opioid receptor mu 1.
For experiment [2], the target named is Delta-type opioid receptor (Homo sapiens, UniProt P41143). The experiment can be described thus: Binding affinity for Opioid receptor delta 1 was determined.
For experiment [3], the species on record is Mus musculus. The experiment can be described thus: Antinociceptive activity in mice was determined using PBQ assay. It counts as functional.
The target in experiment [4] is Kappa-type opioid receptor (Homo sapiens, UniProt P41145). The experiment in a line: Binding affinity for Opioid receptor kappa 1 was determined.
For experiment [5], the species on record is Mus musculus. The experiment can be described thus: Antinociceptive activity in mice was determined using Tail flick method. It counts as functional. In general terms: In hot-plate and tail-flick tests a longer latency is read as antinociception.

Sequence of Kappa-type opioid receptor (P41145 whole entry): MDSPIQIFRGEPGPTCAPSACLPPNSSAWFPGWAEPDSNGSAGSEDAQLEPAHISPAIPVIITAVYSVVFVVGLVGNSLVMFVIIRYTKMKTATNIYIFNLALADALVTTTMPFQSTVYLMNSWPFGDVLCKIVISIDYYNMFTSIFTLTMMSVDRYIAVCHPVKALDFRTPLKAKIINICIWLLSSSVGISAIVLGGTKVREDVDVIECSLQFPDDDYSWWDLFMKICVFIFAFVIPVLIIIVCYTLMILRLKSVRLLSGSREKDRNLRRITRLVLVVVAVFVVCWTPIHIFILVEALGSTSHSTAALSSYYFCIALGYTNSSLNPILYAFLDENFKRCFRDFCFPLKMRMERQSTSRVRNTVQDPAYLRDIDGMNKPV
Sequence of Delta-type opioid receptor (P41143 whole entry): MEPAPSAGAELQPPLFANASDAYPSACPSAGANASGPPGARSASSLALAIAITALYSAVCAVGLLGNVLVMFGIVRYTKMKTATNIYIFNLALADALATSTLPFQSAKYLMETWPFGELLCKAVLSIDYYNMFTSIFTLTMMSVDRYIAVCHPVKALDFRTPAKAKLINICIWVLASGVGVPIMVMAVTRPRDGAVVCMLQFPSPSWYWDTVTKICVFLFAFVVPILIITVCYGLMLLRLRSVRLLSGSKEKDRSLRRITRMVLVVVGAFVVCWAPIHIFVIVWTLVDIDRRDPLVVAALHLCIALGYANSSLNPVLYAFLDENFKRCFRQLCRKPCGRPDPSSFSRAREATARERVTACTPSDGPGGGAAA
Sequence of Mu-type opioid receptor (P35372 whole entry): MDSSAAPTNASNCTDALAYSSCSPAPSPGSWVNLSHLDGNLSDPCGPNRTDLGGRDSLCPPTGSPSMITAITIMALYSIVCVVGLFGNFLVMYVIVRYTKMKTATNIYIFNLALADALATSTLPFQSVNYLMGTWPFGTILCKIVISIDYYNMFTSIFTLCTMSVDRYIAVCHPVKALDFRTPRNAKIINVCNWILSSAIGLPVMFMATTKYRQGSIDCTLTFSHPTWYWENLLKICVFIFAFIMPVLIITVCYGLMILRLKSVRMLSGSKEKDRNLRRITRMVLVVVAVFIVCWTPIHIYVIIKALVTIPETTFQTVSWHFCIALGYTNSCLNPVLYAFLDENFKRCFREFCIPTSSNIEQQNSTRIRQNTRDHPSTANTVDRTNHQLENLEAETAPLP

Regarding `C[S+]([O-])[C@@H]1Cc2ccc(O)cc2C(C)(C)[C@@H]1N` (stereo in doubt; 18B), in experiment [1], the affinity, expressed as Ki, was 2000 nM.

`CS[C@@H]1Cc2ccc(O)cc2C(C)(C)[C@@H]1N`: the Ki – broadly, a measure of affinity in units of concentration, obtained from inhibition or displacement – in experiment [2] worked out at 349 nM; in experiment [4], 66 nM. Besides, the results for the ED50 in experiment [3] and in experiment [5] were 0.14 µmol/kg and 0.58 µmol/kg, respectively.

As to `CC[C@@H]1Cc2ccc(O)cc2C(C)(C)[C@@H]1N`, the results for the inhibitory constant (Ki) in experiment [2], in experiment [1] and in experiment [4] were 4510 nM, 21 nM and 345 nM, respectively. For the same molecule, the results for the ED50 in experiment [3] and in experiment [5] were 4.8 µmol/kg and 10.4 µmol/kg, respectively.

In the case of `C[C@@]12CCCCS[C@@H](Cc3ccc(O)cc31)C2N` (stereo partly specified), the Ki in experiment [2] is 420 nM; in experiment [1], 0.79 nM; in experiment [4] it was 43.4 nM. Further, it took a dose of 0.33 µmol/kg to reach the 50% effect level in experiment [3] (ED50).

With `CC[C@H]1Cc2ccc(O)cc2C(C)(C)[C@@H]1N`, the Ki in experiment [1] amounted to 135 nM.

In the case of `C[S+]([O-])[C@@H]1Cc2ccc(O)cc2C(C)(C)[C@@H]1N` (stereo in doubt; 18A), the inhibition constant Ki in experiment [1] stood at 1060 nM.

On to `CC1(C)c2cc(O)ccc2C[C@@H](S)[C@H]1N`, for which, in experiment [1], the Ki was found to be 163 nM.

For `CN1CC[C@]23c4c5ccc(O)c4O[C@H]2[C@@H](O)C=C[C@H]3[C@H]1C5` [MORPHINE], the figures for the median effective dose (ED50) in experiment [3] and in experiment [5] were 1.6 µmol/kg and 1.2 µmol/kg, respectively.

For `CO[C@@H]1Cc2ccc(O)cc2C(C)(C)[C@@H]1N`, the inhibition constant (Ki) in experiment [2] worked out at 5220 nM; in experiment [1] it was 1.8 nM; in experiment [4], 184 nM. The ED50 (usually the dose that gives a 50% effect, or the effect in half of the subjects) in experiment [3] was 1.1 µmol/kg; in experiment [5], 16 µmol/kg.

Regarding `CC1(C)c2cc(O)ccc2C[C@@H](O)[C@H]1N`, in experiment [1], the affinity corresponds to a Ki of 204 nM.

Molecule `CC1(C)c2cc(O)ccc2C[C@@H](S(C)(=O)=O)[C@H]1N` showed an inhibition constant (Ki) in experiment [1] of 1150 nM.

The record behind these values is ChEMBL document CHEMBL1134942, “Synthesis and structure--activity relationship of novel aminotetralin derivatives with high micro selective opioid affinity” (Bioorg Med Chem Lett, 2002).
